The molecules below were run against Wild Type HPK1 (MAP4K1) Kinase (Homo sapiens (Human), UniProt Q92918) (assay: HPK1 Assay (Caliper EZ reader, fluorescein tagged peptide substrate)). Conditions: ATP 500 micromolar, kinase 6 nM, pH 7.4.
Type: biochemical
Procedure: The enzymatic activity of Wild Type HPK1 (MAP4K1) Kinase was measured in the presence or absence of an inhibitor compound of the present disclosure by preparation of a reaction mixture containing a fluorescein tagged peptide (2 micromolar final concentration), ATP (Adenosine Triphosphate, 500 micromolar final concentration) and Wild Type kinase (6 nM final concentration) in a buffer system comprising 50 mM HEPES (Buffer), 3 mM MgCl2, 5% w/v Trehalose, 0.01% Brij 35 (Detergent), 0.1% Pluronic F127 (Surfactant), 0.1 mM EDTA (Ethylenediaminetetraacetic acid), 0.1 mM EGTA (ethylene glycol-bis(β-aminoethyl ether)-N,N,N′,N′-tetraacetic acid) and 1 mM DTT (Dithiothreitol) and at a pH of 7.4. The reactions were quenched by the addition of EDTA to a final concentration of 25 mM. A Caliper EZ reader was used to measure the extent of substrate to product conversion.
The peptide substrate used in the HPK1 assay was designed based on the amino acid sequence surrounding serine residue 376 of SLP76-Lymphocyte cytosolic protein 2 (a known intracellular substrate of HPK1). This sequence SSFPQSAsLPPYFSQ was modified as follows for use in Caliper assays of HPK1: the serine residues on either side of serine 376 were replaced with alanine, three lysine residues were added at the […] and a fluorescein tag (FAM) was attached to the […] to produce the sequence, FAM-FPQAAsLPPYFAKKK.

Wild Type HPK1 (MAP4K1) Kinase, sequence (Q92918 whole entry, species assumed): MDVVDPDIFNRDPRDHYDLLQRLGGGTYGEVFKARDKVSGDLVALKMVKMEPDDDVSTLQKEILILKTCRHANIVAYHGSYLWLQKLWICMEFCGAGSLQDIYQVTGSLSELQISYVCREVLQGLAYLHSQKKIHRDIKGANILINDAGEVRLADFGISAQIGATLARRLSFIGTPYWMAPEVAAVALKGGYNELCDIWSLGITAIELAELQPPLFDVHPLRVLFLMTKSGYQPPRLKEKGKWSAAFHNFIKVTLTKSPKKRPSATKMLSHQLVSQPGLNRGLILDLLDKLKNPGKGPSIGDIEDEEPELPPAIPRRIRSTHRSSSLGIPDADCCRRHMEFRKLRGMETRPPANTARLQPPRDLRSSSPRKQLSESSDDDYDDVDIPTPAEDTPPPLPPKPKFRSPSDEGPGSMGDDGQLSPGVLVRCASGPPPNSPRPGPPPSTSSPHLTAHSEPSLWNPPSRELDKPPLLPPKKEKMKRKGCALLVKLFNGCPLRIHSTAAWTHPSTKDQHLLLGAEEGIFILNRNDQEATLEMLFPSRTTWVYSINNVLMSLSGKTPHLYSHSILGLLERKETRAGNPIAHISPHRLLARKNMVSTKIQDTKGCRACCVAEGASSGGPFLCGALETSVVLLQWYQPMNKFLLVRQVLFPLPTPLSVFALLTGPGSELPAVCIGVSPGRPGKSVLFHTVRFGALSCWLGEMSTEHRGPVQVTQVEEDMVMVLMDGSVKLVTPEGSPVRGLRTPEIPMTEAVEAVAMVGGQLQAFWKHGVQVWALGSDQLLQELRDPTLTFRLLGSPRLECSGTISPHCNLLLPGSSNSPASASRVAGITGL

Row | IC50 | SMILES
1 | 10 to 100 nM | COc1cc2c(cc1Nc1ncc(Cl)c(Nc3ccccc3P(C)(C)=O)n1)CCN(C)CC2 [Example I-3, (2-((5-chloro-2-((8-methoxy-3-methyl-2,3,4,5-tetrahydro-1H-benzo[d]azepin-7-yl)amino)pyrimidin-4-yl)amino)phenyl)dimethylphosphine oxide]
2 | 100 to 10000 nM | COc1cc2c(cc1Nc1ncc(-c3cnn(C)c3)c(Nc3ccccc3P(C)(C)=O)n1)CN(C)CC2 [Example I-47, (2-((2-((6-methoxy-2-methyl-1,2,3,4-tetrahydroisoquinolin-7-yl)amino)-5-(1-methyl-1H-pyrazol-4-yl)pyrimidin-4-yl)amino)phenyl)dimethylphosphine oxide]
3 | 10 to 100 nM | COc1cc2c(cc1Nc1ncc(Cl)c(Nc3ccccc3P(C)(C)=O)n1)C(C)(C)N(C)CC2 [Example I-28, (2-((5-chloro-2-((6-methoxy-1,1,2-trimethyl-1,2,3,4-tetrahydroisoquinolin-7-yl)amino)pyrimidin-4-yl)amino)phenyl)dimethylphosphine oxide]
4 | < 5 nM | COc1cc2c(cc1Nc1ncc(Br)c(Nc3ccccc3P(C)(C)=O)n1)CN(C)CC2 [Example I-22, (2-((5-bromo-2-((6-methoxy-2-methyl-1,2,3,4-tetrahydroisoquinolin-7-yl)amino)pyrimidin-4-yl)amino)phenyl)dimethylphosphine oxide]
5 | < 5 nM | CCN1CCc2cc(OC)c(Nc3ncc(Cl)c(Nc4ccccc4P(C)(C)=O)n3)cc2C1 [Example I-12, (2-((5-chloro-2-((2-ethyl-6-methoxy-1,2,3,4-tetrahydroisoquinolin-7-yl)amino)pyrimidin-4-yl)amino)phenyl)dimethylphoshine oxide]
6 | 100 to 10000 nM | COc1cc2c(cc1Nc1ncc(Cl)c(Nc3ccccc3P(C)(C)=O)n1)[C@@H](N(C)C)CCC2 [Example I-15, (S)-(2-((5-chloro-2-((8-(dimethylamino)-3-methoxy-5,6,7,8-tetrahydronaphthalen-2-yl)amino)pyrimidin-4-yl)amino)phenyl)dimethylphosphine oxide]
7 | < 5 nM | CN1CCc2cc(Cl)c(Nc3ncc(Cl)c(Nc4ccccc4P(C)(C)=O)n3)cc2C1 [Example I-6, 5-chloro-N^2-(6-chloro-2-methyl-3,4-dihydro-1H-isoquinolin-7-yl)-N^4-(2-dimethylphosphorylphenyl)pyrimidine-2,4-diamine]
8 | 100 to 10000 nM | COc1cc2c(cc1Nc1ncc(Cl)c(Nc3ccccc3P(C)(C)=O)n1)C(=O)NCC2 [Example I-33, 7-((5-chloro-4-((2-(dimethylphosphoryl)phenyl)amino)pyrimidin-2-yl)amino)-6-methoxy-3,4-dihydroisoquinolin-1(2H)-one]
9 | 5 to 10 nM | COc1cc2c(cc1Nc1ncc(C(F)(F)F)c(Nc3ccccc3P(C)(C)=O)n1)CN(C)CC2 [Example I-27, (2-((2-((6-methoxy-2-methyl-1,2,3,4-tetrahydroisoquinolin-7-yl)amino)-5-(trifluoromethyl)pyrimidin-4-yl)amino)phenyl)dimethylphosphine oxide]
10 | 10 to 100 nM | COc1cc2c(cc1Nc1ncc(Cl)c(Nc3ccccc3P(C)(C)=O)n1)CN(C)C2 [Example I-1, (2-((5-Chloro-2-((6-methoxy-2-methylisoindolin-5-yl)amino)pyrimidin-4-yl)amino)phenyl)dimethylphosphine oxide]
11 | 10 to 100 nM | COc1cc2c(cc1Nc1ncc(Cl)c(Nc3ccccc3P(C)(C)=O)n1)[C@H](N(C)C)CCC2 [Example I-13, (R)-(2-((5-chloro-2-((8-(dimethylamino)-3-methoxy-5,6,7,8-tetrahydronaphthalen-2-yl)amino)pyrimidin-4-yl)amino)phenyl)dimethylphosphine oxide]
12 | 10 to 100 nM | COc1cc2c(cc1Nc1ncc(F)c(Nc3ccccc3P(C)(C)=O)n1)CN(C)CC2 [Example I-26, (2-((5-fluoro-2-((6-methoxy-2-methyl-1,2,3,4-tetrahydroisoquinolin-7-yl)amino)pyrimidin-4-yl)amino)phenyl)dimethylphosphine oxide]
13 | 100 to 10000 nM | COc1cc2c(cc1Nc1ncc(Cl)c(Nc3ccccc3P(C)(C)=O)n1)CN(C)CCC2 [Example I-35, (2-((5-chloro-2-((7-methoxy-2-methyl-2,3,4,5-tetrahydro-1H-benzo[c]azepin-8-yl)amino)pyrimidin-4-yl)amino)phenyl)dimethylphosphine oxide]
14 | 10 to 100 nM | COc1cc2c(cc1Nc1ncc(Cl)c(Nc3ccccc3P(C)(C)=O)n1)CN(C1COC1)CC2 [Example I-42, (2-((5-Chloro-2-((6-methoxy-2-(oxetan-3-yl)-1,2,3,4-tetrahydroisoquinolin-7-yl)amino)pyrimidin-4-yl)amino)phenyl)dimethylphosphine oxide]
15 | < 5 nM | C=Cc1cnc(Nc2cc3c(cc2OC)CCN(C)C3)nc1Nc1ccccc1P(C)(C)=O [Example I-46, (2-((2-((6-Methoxy-2-methyl-1,2,3,4-tetrahydroisoquinolin-7-yl)amino)-5-vinylpyrimidin-4-yl)amino)phenyl)dimethylphosphine oxide]
16 | < 5 nM | COc1cc2c(cc1Nc1ncc(Cl)c(Nc3ccccc3P(C)(C)=O)n1)CN(C(C)C)CC2 [Example I-11, (2-((5-chloro-2-((2-isopropyl-6-methoxy-1,2,3,4-tetrahydroisoquinolin-7-yl)amino)pyrimidin-4-yl)amino)phenyl)dimethylphosphine oxide]
17 | < 5 nM | CN1CCc2c(Br)cc(Nc3ncc(Cl)c(Nc4ccccc4P(C)(C)=O)n3)cc2C1 [Example I-24, (2-((2-((5-bromo-2-methyl-1,2,3,4-tetrahydroisoquinolin-7-yl)amino)-5-chloropyrimidin-4-yl)amino)phenyl)dimethylphosphine oxide]
18 | 5 to 10 nM | CNC(=O)c1ccccc1Nc1nc(Nc2cc3c(cc2OC)CCN(C)C3)ncc1Cl [II-3, 2-((5-chloro-2-((6-methoxy-2-methyl-1,2,3,4-tetrahydroisoquinolin-7-yl)amino)pyrimidin-4-yl)amino)-N-methylbenzamide]
19 | < 5 nM | COc1cc2c(cc1Nc1ncc(Cl)c(Nc3ccccc3P(C)(C)=O)n1)CN(C)CC2 [Example I-2, (2-((5-chloro-2-((6-methoxy-2-methyl-1,2,3,4-tetrahydroisoquinolin-7-yl)amino)pyrimidin-4-yl)amino)phenyl)dimethylphosphine oxide]

From patent US11180482B2, “Anilinopyrimidines as haematopoietic progenitor kinase 1 (HPK1) inhibitors” (Ariad Pharmaceuticals, Inc., priority 2016, dated 2021)
